Where two headings read alike, the source gives them in different places.
Tests used:
[1] = system: pancreatic ductal adenocarcinoma-03; format: in vivo
Experimental: BDF1 female mice were obtained from N.C.I., CRL-Ral (D.O.B. was Feb. 26, 2001; D.O.A. was Mar. 10, 2001). The mice weighed an average of 22.5 gm. Mice were implanted SC with pancreatic ductal adenocarcinoma-03 passage 143. (D.O.T. was May 29, 2001; Td was 2.3 days).
The R-enantiomer of compound 22c was suspended in 3% ethanol, 1% POE-80, 0.25% sodium bicarbonate (by volume) to effect solution. dH2O was then added, and the pH adjusted to 7 with HCl. […] The R-enantiomer of compound 22b was suspended in 3% ethanol, 1% POE-80, 0.5% sodium-bicarbonate (by volume) to effect solution. Then, dH2O was added, and the pH adjusted to 7.5 with HCl. […] Adriamycin (source ADRIA; lot 2033BC) was suspended in dH2O to effect solution, and the pH was 6.0.
Treatment began six days following implant, at which time the tumors were palpable size (126 mg median). The duration of treatment was prolonged (18 days) in order to obtain a clear separation in efficacy between the compounds.

[2] = system: mammary adenocarcinoma-16/C; assay: Test F: R-enantiomers of 22b and 22c against early staged mammary adenocarcinoma-16/C; format: in vivo, C3H female mice
Experimental: C3H female mice were obtained from N.C.I. (D.O.B. was […]; D.O.A. was Jan. 27, 2001). The mice weighed an average of 19.2 gm. Mice were implanted SC with mammary adenocarcinoma-16/C passage-170, a fast growing, highly invasive, highly metastatic tumor (D.O.T. was Mar. 8, 2001; Td was 1.2 days).
The R-enantiomers of both Compound 22c and Compound 22b were each suspended in 3% ethanol, 1% POE-80, 0.5% sodium bicarbonate (by volume) to effect solution, P.B.S. was then added and the pH adjusted to 7 with HCl. Adriamycin (ADRIA; lot number 20338c) was suspended in dH2O to effect solution and the pH was adjusted to 6.0. Mice were administered 0.2 ml per IV injection.

colon carcinoma 26 = settings: Cg 3; IV 50 mg/kg/inj days 6,8,10,13,15; total 250 mg/kg
[3] = Cg 2, IV 80 mg/kg/inj days 6,9,12,15,18,21,24, total 560 mg/kg
[4] = Cg 3, IV 50 mg/kg/inj days 6,9,12,15,18,21,24, total 350 mg/kg
[5] = Cg 4, IV 31 mg/kg/inj days 6,9,12,15,18,21,24, total 217 mg/kg
[6] = Cg 5, total 592.8 mg/kg, text: SC 31.2 mg/kg/inj qd 6-24 (table prints days 6,9..24 IV)
[7] = Cg 12 in table (Cage 6 in text), total 370.5 mg/kg, text: SC 19.5 mg/kg/inj qd 6-24 (table prints IV)
[8] = Cage 5, IV 50 mg/kg/inj qd 1-5, total 250 mg/kg
[9] = Cage 5, IV 50 mg/kg/inj qd 1-5, total 250 mg/kg, listed as R-enantiomer of compound 22b
[10] = Cage 6, IV 50 mg/kg/inj days 1,3,5,7, total 200 mg/kg
[11] = Cage 7, IV 30 mg/kg/inj days 1,3,5,7, total 120 mg/kg

Which Behavior post injection ([1]; Cage 2, IV 80 mg/kg/inj, lasted only a few minutes) does the source give for `C[C@@H](Oc1ccc(Oc2ccc3ccc(Cl)cc3n2)cc1)C(=O)O` [Compound R-22b, (R) 2-[4-(7-chloroquinolin-2-yloxy)phenoxy]propanoic acid] here?
Its Behavior post injection is “agitated post IV injection”.

What about the Neuromuscular toxicity ([1]; Cage 2, IV 80 mg/kg/inj, total 560 mg/kg) of the same molecule?
Its Neuromuscular toxicity is “no neuromuscular toxicity”.

What about the Behavior post injection ([1]; Cage 5, SC 31.2 mg/kg/inj qd 6-24) of the same molecule?
The Behavior post injection was “not agitated post SC injection”.

And the Behavior post injection ([1]; Cage 6 in text, SC 19.5 mg/kg/inj qd 6-24)?
Its Behavior post injection is “not agitated post SC injection”.

What about the “% Body Wt change between day 6 and day 24” value [1, 3] of the same molecule?
The value was “+3.7%”.

And the “% T/C mass” value [1, 3]?
Its value is 14.1%.

What about the “Activity Rating” value [1, 3] of the same molecule?
The value was “+++ (2.0-2.8)”.

And the “CR's” value [1, 3]?
Its value is 0/7.

And the “Drug Deaths” value [1, 3]?
Its value is 0/7.

And the “Growth Delay” value [1, 3]?
The value was 17.5 days.

And the “Log Kill” value [1, 3]?
Its value is 2.3.

What about the “Median Tumor Mass on Day 24 (Range)” value [1, 3] of the same molecule?
Its value is 320 mg.

And the “Median time for tumors to 1,000 mg (range)” value [1, 3]?
The value was 34 days.

What about the “PR's” value [1, 3] of the same molecule?
The value was 2/7.

And the “Tumor Free day-157” value [1, 3]?
Its value is 0/7.

What about the “% Body Wt change between day 6 and day 24” value [1, 4] of the same molecule?
The value was “+8.8%”.

And the “% T/C mass” value [1, 4]?
Its value is 29.1%.

What about the “Activity Rating” value [1, 4] of the same molecule?
Its value is “++ (1.3-1.9)”.

What about the “CR's” value [1, 4] of the same molecule?
The value was 1/6.

And the “Drug Deaths” value [1, 4]?
Its value is 0/6.

What about the “Growth Delay” value [1, 4] of the same molecule?
Its value is 11.5 days.

And the “Log Kill” value [1, 4]?
The value was 1.5.

What about the “Median Tumor Mass on Day 24 (Range)” value [1, 4] of the same molecule?
Its value is 658 mg.

What about the “Median time for tumors to 1,000 mg (range)” value [1, 4] of the same molecule?
The value was 28 days.

And the “PR's” value [1, 4]?
Its value is 1/6.

What about the “Tumor Free day-157” value [1, 4] of the same molecule?
Its value is 0/6.

And the “% Body Wt change between day 6 and day 24” value [1, 5]?
The value was “+10.4%”.

And the “% T/C mass” value [1, 5]?
Its value is 76.2%.

What about the “Activity Rating” value [1, 5] of the same molecule?
Its value is “− (<0.7)”.

What about the “CR's” value [1, 5] of the same molecule?
Its value is 0/6.

And the “Drug Deaths” value [1, 5]?
Its value is 0/6.

What about the “Growth Delay” value [1, 5] of the same molecule?
The value was 3.5 days.

And the “Log Kill” value [1, 5]?
Its value is 0.5.

And the “Median Tumor Mass on Day 24 (Range)” value [1, 5]?
The value was 1722 mg.

What about the “Median time for tumors to 1,000 mg (range)” value [1, 5] of the same molecule?
Its value is 20 days.

What about the “PR's” value [1, 5] of the same molecule?
The value was 0/6.

And the “Tumor Free day-157” value [1, 5]?
Its value is 0/6.

And the “% Body Wt change between day 6 and day 24” value [1, 6]?
The value was “+3.5%”.

And the “% T/C mass” value [1, 6]?
Its value is 48.9%.

And the “Activity Rating” value [1, 6]?
The value was “+ (0.7-1.2)”.

What about the “CR's” value [1, 6] of the same molecule?
Its value is 1/5.

What about the “Drug Deaths” value [1, 6] of the same molecule?
The value was 0/5.

And the “Growth Delay” value [1, 6]?
Its value is 6.5 days.

And the “Log Kill” value [1, 6]?
The value was 0.9.

What about the “Median Tumor Mass on Day 24 (Range)” value [1, 6] of the same molecule?
Its value is 1105 mg.

What about the “Median time for tumors to 1,000 mg (range)” value [1, 6] of the same molecule?
The value was 23 days.

And the “PR's” value [1, 6]?
Its value is 1/5.

What about the “Tumor Free day-157” value [1, 6] of the same molecule?
Its value is 1/5.

What about the “% Body Wt change between day 6 and day 24” value [1, 7] of the same molecule?
The value was “+10.3%”.

What about the “% T/C mass” value [1, 7] of the same molecule?
The value was 82.7%.

And the “Activity Rating” value [1, 7]?
Its value is “− (<0.7)”.

And the “CR's” value [1, 7]?
Its value is 0/5.

What about the “Drug Deaths” value [1, 7] of the same molecule?
The value was 0/5.

And the “Growth Delay” value [1, 7]?
Its value is 3.0 days.

What about the “Log Kill” value [1, 7] of the same molecule?
The value was 0.4.

What about the “Median Tumor Mass on Day 24 (Range)” value [1, 7] of the same molecule?
The value was 1868 mg.

And the “Median time for tumors to 1,000 mg (range)” value [1, 7]?
The value was 19.5 days.

And the “PR's” value [1, 7]?
The value was 0/5.

What about the “Tumor Free day-157” value [1, 7] of the same molecule?
The value was 0/5.

And the “% T/C mass” value [2, 8]?
Its value is 0%.

And the “Activity Rating” value [2, 8]?
Its value is “+++ (2.0-2.8)”.

And the “Drug Deaths” value [2, 8]?
Its value is 0/5.

And the “Growth Delay” value [2, 8]?
Its value is 7.0 days.

What about the “Log Kill” value [2, 8] of the same molecule?
Its value is 2.1.

And the “Median Tumor Mass on Day 10 (Range)” value [2, 8]?
Its value is 0 mg.

And the “Median time for tumors to 1000 mg (range)” value [2, 8]?
The value was 16.5 (13.5-18) days.

What about the “Tumor Free day-155” value [2, 8] of the same molecule?
Its value is 0/5.

What about the “% T/C mass” value [2, 9] of the same molecule?
The value was 0%.

And the “Drug Deaths” value [2, 9]?
The value was “no deaths”.

What about the “% T/C mass” value [2, 10] of the same molecule?
The value was 5%.

What about the “Activity Rating” value [2, 10] of the same molecule?
Its value is “++ (1.3-1.9)”.

And the “Drug Deaths” value [2, 10]?
The value was 0/5.

What about the “Growth Delay” value [2, 10] of the same molecule?
The value was 5.8 days.

And the “Log Kill” value [2, 10]?
The value was 1.7.

What about the “Median Tumor Mass on Day 10 (Range)” value [2, 10] of the same molecule?
The value was 75 mg.

What about the “Median time for tumors to 1000 mg (range)” value [2, 10] of the same molecule?
The value was 15.3 (14-17) days.

What about the “Tumor Free day-155” value [2, 10] of the same molecule?
The value was 0/5.

And the “% T/C mass” value ([2]; Cage 6, IV 50 mg/kg/inj days 1,3,5,7, total 200 mg/kg, listed as R-enantiomer of compound 22b)?
Its value is 5%.

What about the “% T/C mass” value [2, 11] of the same molecule?
Its value is 32%.

What about the “Activity Rating” value [2, 11] of the same molecule?
The value was “+ (0.7-1.2)”.

What about the “Drug Deaths” value [2, 11] of the same molecule?
Its value is 0/5.

And the “Growth Delay” value [2, 11]?
Its value is 2.5 days.

What about the “Log Kill” value [2, 11] of the same molecule?
Its value is 0.8.

And the “Median Tumor Mass on Day 10 (Range)” value [2, 11]?
The value was 486 mg.

What about the “Median time for tumors to 1000 mg (range)” value [2, 11] of the same molecule?
Its value is 12 (11.5-14) days.

What about the “Tumor Free day-155” value [2, 11] of the same molecule?
Its value is 0/5.

What about the “% T/C mass” value ([2]; Cage 7, IV 30 mg/kg/inj days 1,3,5,7, total 120 mg/kg, listed as R-enantiomer of compound 22b) of the same molecule?
The value was 32%.

What about the Neuromuscular toxicity ([2]; mouse, in vivo, iv) of the same molecule?
The Neuromuscular toxicity was “completely devoid of neuromuscular toxicity”.

And the “% Body Wt change at nadir” value (colon carcinoma 26)?
Its value is −6.2%.

And the “Activity Rating” value (colon carcinoma 26)?
Its value is “++ (1.3-1.9)”.

And the “CR's” value (colon carcinoma 26)?
Its value is 1/6.

And the “Drug Deaths” value (colon carcinoma 26)?
Its value is 0/6.

What about the “Growth Delay” value (colon carcinoma 26) of the same molecule?
The value was 8 days.

What about the “Log Kill” value (colon carcinoma 26) of the same molecule?
The value was 1.4.

What about the “Median time for tumors to 700 mg (range)” value (colon carcinoma 26) of the same molecule?
Its value is 21 (15.5-48) days.

What about the “PR's” value (colon carcinoma 26) of the same molecule?
The value was 1/6.

And the “Tumor Free day-156” value (colon carcinoma 26)?
Its value is 0/6.

And the day of nadir (colon carcinoma 26)?
Its day of nadir is 16 days.

From patent publication US7507749B2, “Antitumor agents” (priority 2001, dated 2009)
